The results in this text go back to patent US20130150340A1, “6-(4-Hydroxy-phenyl)-1H-pyrazolo[3,4-b]pyridine-4-carboxylic acid amide derivatives as kinase inhibitors” (SANOFI, priority 2011, published 2013).

The target of the experiment is T1, human full-length recombinant PKC βII (Homo sapiens, UniProt P05771).
T1 construct: Active human full-length recombinant PKC βII; purchased Invitrogen GmbH, Darmstadt, Germany
As to the kind of experiment: Determination of PKC βII inhibition (Caliper mobility-shift kinase assay). Type of experiment: biochemical. The settings on record: example compounds at a final concentration of 1.14 μM (±0.15 μM); 60 min incubation at 32° C. Here is the method: Determination of PKC 3H Inhibition
PKC βII inhibition was determined according to the following protocol:
Active human full-length recombinant PKC βII and the peptide substrate, Fluorescein-RFARKGSLRQKNV, were purchased from Invitrogen GmbH, Darmstadt, Germany. Adenosine-5′-triphosphate (ATP), bovine serum albumine (BSA), dimethylsulphoxide (DMSO), 4-(2-hydroxyethyl)piperazine-1-ethanesulfonic acid (Hepes), Triton X-100, 1,2-Dioleoyl-sn-glycerol (DAG), L-α-Phosphatidyl-L-serine (PS), calcium chloride (CaCl2), and Pluronic F-68 were purchased from Sigma-Aldrich, Munich, Germany. Magnesium chloride, 1 M sodium hydroxide solution, 1M hydrochloric acid solution and EDTA were obtained from Merck Biosciences, Darmstadt, Germany.
Test compounds were diluted to three times the test concentration in buffer 1 (30 mM Hepes-NaOH, pH 7.4, 0.01% Pluronic F-68 and 3% (v/v) DMSO). The PKC βII enzyme was diluted to a concentration of 30 ng/ml in buffer 2 (30 mM Hepes-NaOH, pH 7.4, 15 mM MgCl2, 150 μM CaCl2, 150 μg/ml PS, 60 μg/ml DAG, and 0.045% (w/v) Triton X-100). The peptide substrate and ATP were diluted to concentrations of 3 μM and 120 μM, respectively, in buffer 2. Two μl of the compound solution were mixed with 2 μl of the diluted enzyme in a 384-well small volume microtiter plate (Greiner, Bio-One, Frickenhausen, Germany), and the kinase reaction was initiated by addition of 2 μl of the solution containing peptide substrate and ATP. After 60 min incubation at 32° C., the reaction was stopped by addition of 20 μl of a solution containing 130 mM Hepes-NaOH, pH 7.4, 0.0195% (v/v) Brij-35, 6.5 mM EDTA, 0.13% chip coating reagent 3 (Caliper Lifescience Inc, Hopkinton, Mass.) and 6.5% (v/v) DMSO. Phosphorylation of the substrate peptide was then detected on a Caliper 3000 instrument essentially as described by Pommereau et al (J. Biomol. Screening 2004, 9(5), […]), Separation conditions were as follows: Pressure −0.8 psi, upstream voltage −3000 V, downstream voltage −800 V. Positive controls (buffer 1 instead of compound) and negative controls (buffer 1 instead of compound and buffer 2 instead of kinase solution) were run in parallel on each plate. Fractional turnover (R) was determined as the height of the peak of the phosphorylated peptide product divided by the sum of the unphosphorylated substrate and phosphorylated product peak heights. Percent-inhibition values for the test compounds were determined using the formula
% Inhibition=100*(1−(Rcompound−Rnegative control)/(Rpositive control−Rnegative control).

T1 sequence (P05771 1-673 isoform P05771-2): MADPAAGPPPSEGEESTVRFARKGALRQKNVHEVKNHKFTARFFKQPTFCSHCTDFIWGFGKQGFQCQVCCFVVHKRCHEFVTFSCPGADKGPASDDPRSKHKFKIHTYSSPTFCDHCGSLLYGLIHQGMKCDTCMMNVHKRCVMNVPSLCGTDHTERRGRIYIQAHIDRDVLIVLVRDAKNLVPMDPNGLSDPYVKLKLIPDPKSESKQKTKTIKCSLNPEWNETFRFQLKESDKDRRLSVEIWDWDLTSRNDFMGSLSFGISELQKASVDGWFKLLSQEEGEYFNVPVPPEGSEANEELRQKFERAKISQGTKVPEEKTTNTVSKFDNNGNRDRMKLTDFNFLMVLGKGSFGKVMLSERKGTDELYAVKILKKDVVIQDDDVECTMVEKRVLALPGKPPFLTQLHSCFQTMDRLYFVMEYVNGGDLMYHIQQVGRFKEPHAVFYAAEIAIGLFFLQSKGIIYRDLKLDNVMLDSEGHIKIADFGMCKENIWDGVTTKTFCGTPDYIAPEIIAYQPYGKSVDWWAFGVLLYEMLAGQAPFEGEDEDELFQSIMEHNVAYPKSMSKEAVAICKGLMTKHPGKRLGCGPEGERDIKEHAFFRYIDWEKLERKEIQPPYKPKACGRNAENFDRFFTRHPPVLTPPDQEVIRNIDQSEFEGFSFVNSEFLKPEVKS

Take `N[C@H]1CC[C@@H](CNC(=O)c2cc(-c3ccc(O)cc3)nc3[nH]ncc23)CC1` [Example 12, 6-(4-Hydroxy-phenyl)-1H-pyrazolo[3,4-b]pyridine-4-carboxylic acid (cis-4-amino-cyclohexylmethyl)-amide]: the inhibition at 1.14 µM stood at 46%. Then `N[C@H]1CC[C@@H](NC(=O)c2cc(-c3ccc(O)cc3)nc3[nH]ncc23)CC1` [Example 8, 6-(4-Hydroxy-phenyl)-1H-pyrazolo[3,4-b]pyridine-4-carboxylic acid (cis-4-amino-cyclohexyl)-amide], with 46%; and `O=C(NC1CCNC2(CCC2)C1)c1cc(-c2ccc(O)cc2)nc2[nH]ncc12` (stereo not shown) [Example 32, 6-(4-Hydroxy-phenyl)-1H-pyrazolo[3,4-b]pyridine-4-carboxylic acid (5-aza-spiro[3.5]non-8-yl)-amide], with 69%. To `O=C(NCC1CNC1)c1cc(-c2ccc(O)cc2)nc2[nH]ncc12` [Example 13, 6-(4-Hydroxy-phenyl)-1H-pyrazolo[3,4-b]pyridine-4-carboxylic acid (azetidin-3-ylmethyl)-amide] belongs 39%; to `O=C(c1cc(-c2ccc(O)cc2)nc2[nH]ncc12)N1CCCC2(CCNC2)C1` (stereo not shown) [Example 24, (2,7-Diaza-spiro[4.5]dec-7-yl)-[6-(4-hydroxy-phenyl)-1H-pyrazolo[3,4-b]pyridin-4-yl]-methanone], 29%; to `CO[C@H]1CNC[C@@H]1NC(=O)c1cc(-c2ccc(O)cc2)nc2[nH]ncc12` [Example 6, 6-(4-Hydroxy-phenyl)-1H-pyrazolo[3,4-b]pyridine-4-carboxylic acid ((3S,4S)-4-methoxy-pyrrolidin-3-yl)-amide], 87%. Then `CNC1CCN(C(=O)c2cc(-c3ccc(O)cc3)nc3[nH]ncc23)C1` (stereo not shown) [Example 39, [6-(4-Hydroxy-phenyl)-1H-pyrazolo[3,4-b]pyridin-4-yl]-(3-methylamino-pyrrolidin-1-yl)-methanone], with 62%; and `CN1CCN(C(=O)c2cc(-c3ccc(O)cc3)nc3[nH]ncc23)CC1` [Example 52, [6-(4-Hydroxy-phenyl)-1H-pyrazolo[3,4-b]pyridin-4-yl]-(4-methyl-piperazin-1-yl)-methanone], with 38%.

For `O=C(NC1CC2(CCNCC2)c2ccccc21)c1cc(-c2ccc(O)cc2)nc2[nH]ncc12` (stereo not shown) [Example 50, 6-(4-hydroxy-phenyl)-1H-pyrazolo[3,4-b]pyridine-4-carboxylic acid (2,3-dihydrospiro[1H-indene-1,4′-piperidin]-3-yl)-amide], the inhibition at 1.14 µM was found to be 97%.

Regarding `CN(C(=O)c1cc(-c2ccc(O)cc2)nc2[nH]ncc12)C1CCNCC1` [Example 42, 6-(4-Hydroxy-phenyl)-1H-pyrazolo[3,4-b]pyridine-4-carboxylic acid methyl-piperidin-4-yl-amide], the inhibition at 1.14 µM is 39%. Then `O=C(c1cc(-c2ccc(O)cc2)nc2[nH]ncc12)N1CCN(C(=O)C2CC2)CC1` [Example 57, (4-Cyclopropanecarbonyl-piperazin-1-yl)-[6-(4-hydroxy-phenyl)-1H-pyrazolo[3,4-b]pyridin-4-yl]-methanone], with 28%.

As to `O=C(c1cc(-c2ccc(O)cc2)nc2[nH]ncc12)N1CCOC2(CCCNC2)C1` (stereo not shown) [Example 27, [6-(4-Hydroxy-phenyl)-1H-pyrazolo[3,4-b]pyridin-4-yl]-(1-oxa-4,8-diaza-spiro[5.5]undec-4-yl)-methanone], the inhibition at 1.14 µM came to 42%. As for `O=C(c1cc(-c2ccc(O)cc2)nc2[nH]ncc12)N1CCC2(CCNCC2)CC1` [Example 44, (3,9-Diaza-spiro[5.5]undec-3-yl)-[6-(4-hydroxy-phenyl)-1H-pyrazolo[3,4-b]pyridin-4-yl]-methanone], the inhibition at 1.14 µM was 44%. To `O=C(NC1CCN(Cc2cccnc2)CC1)c1cc(-c2ccc(O)cc2)nc2[nH]ncc12` [Example 78, 6-(4-Hydroxy-phenyl)-1H-pyrazolo[3,4-b]pyridine-4-carboxylic acid (1-pyridin-3-ylmethyl-piperidin-4-yl)-amide] belongs 84%; to `N[C@H]1C[C@H](NC(=O)c2cc(-c3ccc(O)cc3)nc3[nH]ncc23)C1` [Example 30, 6-(4-Hydroxy-phenyl)-1H-pyrazolo[3,4-b]pyridine-4-carboxylic acid (trans-3-amino-cyclobutyl)-amide], 68%. To `O=C1CC[C@@H](NC(=O)c2cc(-c3ccc(O)cc3)nc3[nH]ncc23)CN1` [Example 69, 6-(4-Hydroxy-phenyl)-1H-pyrazolo[3,4-b]pyridine-4-carboxylic acid ((R)-6-oxo-piperidin-3-yl)-amide] belongs 59%; to `CN1CCCC(NC(=O)c2cc(-c3ccc(O)cc3)nc3[nH]ncc23)C1` (stereo not shown) [Example 41, 6-(4-Hydroxy-phenyl)-1H-pyrazolo[3,4-b]pyridine-4-carboxylic acid (1-methyl-piperidin-3-yl)-amide], 73%.

In the case of `CCN1CC2CC1CN2C(=O)c1cc(-c2ccc(O)cc2)nc2[nH]ncc12` (stereo not shown) [Example 70, (5-Ethyl-2,5-diaza-bicyclo[2.2.1]hept-2-yl)-[6-(4-hydroxy-phenyl)-1H-pyrazolo[3,4-b]pyridin-4-yl]-methanone], the inhibition at 1.14 µM stood at 46%. In the case of `CN1CCC(NC(=O)c2cc(-c3ccc(O)cc3)nc3[nH]ncc23)CC1` [Example 66, 6-(4-Hydroxy-phenyl)-1H-pyrazolo[3,4-b]pyridine-4-carboxylic acid (1-methyl-piperidin-4-yl)-amide], the inhibition at 1.14 µM amounted to 59%. Then `O=C(c1cc(-c2ccc(O)cc2)nc2[nH]ncc12)N1CC2CC1CN2` (stereo not shown) [Example 47, 2,5-Diaza-bicyclo[2.2.1]hept-2-yl-[6-(4-hydroxy-phenyl)-1H-pyrazolo[3,4-b]pyridin-4-yl]-methanone], with 81%. In the case of `CN1CC(NC(=O)c2cc(-c3ccc(O)cc3)nc3[nH]ncc23)C1` [Example 62, 6-(4-Hydroxy-phenyl)-1H-pyrazolo[3,4-b]pyridine-4-carboxylic acid (1-methyl-azetidin-3-yl)-amide], the inhibition at 1.14 µM worked out at 73%.

With `O=C(c1cc(-c2ccc(O)cc2)nc2[nH]ncc12)N1CCC2(CCNC2)C1` (stereo not shown) [Example 25, (2,7-Diaza-spiro[4.4]non-2-yl)-[6-(4-hydroxy-phenyl)-1H-pyrazolo[3,4-b]pyridin-4-yl]-methanone], the inhibition at 1.14 µM amounted to 58%. To `O=C(c1cc(-c2ccc(O)cc2)nc2[nH]ncc12)N1CCN(C2CCCCCC2)CC1` [Example 58, (4-Cycloheptyl-piperazin-1-yl)-[6-(4-hydroxy-phenyl)-1H-pyrazolo[3,4-b]pyridin-4-yl]-methanone] belongs 40%; to `CC(=O)N1CCC(NC(=O)c2cc(-c3ccc(O)cc3)nc3[nH]ncc23)CC1` [Example 68, 6-(4-Hydroxy-phenyl)-1H-pyrazolo[3,4-b]pyridine-4-carboxylic acid (1-acetyl-piperidin-4-yl)-amide], 40%; to `NC1CN(C(=O)c2cc(-c3ccc(O)cc3)nc3[nH]ncc23)C1` [Example 36, (3-Amino-azetidin-1-yl)-[6-(4-hydroxy-phenyl)-1H-pyrazolo[3,4-b]pyridin-4-yl]-methanone], 54%.

As for `O=C(c1cc(-c2ccc(O)cc2)nc2[nH]ncc12)N1CCC2(CCCNC2)C1` (stereo not shown) [Example 23, (2,7-Diaza-spiro[4.5]dec-2-yl)-[6-(4-hydroxy-phenyl)-1H-pyrazolo[3,4-b]pyridin-4-yl]-methanone], the inhibition at 1.14 µM is 52%. To `CN1CCC(N(C)C(=O)c2cc(-c3ccc(O)cc3)nc3[nH]ncc23)CC1` [Example 73, 6-(4-Hydroxy-phenyl)-1H-pyrazolo[3,4-b]pyridine-4-carboxylic acid methyl-(1-methyl-piperidin-4-yl)-amide] belongs 31%; to `O=C(NC1CCNCC1)c1cc(-c2ccc(O)cc2)nc2[nH]ncc12` [Example 2, 6-(4-Hydroxy-phenyl)-1H-pyrazolo[3,4-b]pyridine-4-carboxylic acid piperidin-4-ylamide], 27%.

By inhibition is commonly meant the share of the control response that was lost under treatment.
